Laboratory results as given in patent US9834542B2, “LXR modulators” (BRISTOL-MYERS SQUIBB COMPANY, priority 2013, dated 2017).

Target: T1, LXRβ (Homo sapiens, UniProt P55055)
T1 construct: Co-transfection expression plasmids, comprising full-length LXRα (pCMX-h LXRα[…] or LXRβ (pCMX-hLXRβ)); expressed in transfected cells; host or cells: CV-1 African Green Monkey Kidney Cells
T1 sequence (P55055 1-460): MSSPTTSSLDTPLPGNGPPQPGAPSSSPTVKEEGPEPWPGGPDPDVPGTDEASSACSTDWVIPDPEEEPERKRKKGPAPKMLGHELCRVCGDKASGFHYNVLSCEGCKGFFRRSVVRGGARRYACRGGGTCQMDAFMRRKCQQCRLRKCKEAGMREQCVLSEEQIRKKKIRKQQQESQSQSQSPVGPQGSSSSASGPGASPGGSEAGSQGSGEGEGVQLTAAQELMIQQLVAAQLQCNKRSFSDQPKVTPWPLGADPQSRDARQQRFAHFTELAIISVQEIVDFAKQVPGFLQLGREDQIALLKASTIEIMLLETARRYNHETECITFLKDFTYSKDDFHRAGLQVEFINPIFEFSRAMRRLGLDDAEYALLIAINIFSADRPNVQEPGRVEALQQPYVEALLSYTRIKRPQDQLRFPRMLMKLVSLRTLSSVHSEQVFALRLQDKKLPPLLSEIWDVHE
T1 sequence (P19793 1-462 partner): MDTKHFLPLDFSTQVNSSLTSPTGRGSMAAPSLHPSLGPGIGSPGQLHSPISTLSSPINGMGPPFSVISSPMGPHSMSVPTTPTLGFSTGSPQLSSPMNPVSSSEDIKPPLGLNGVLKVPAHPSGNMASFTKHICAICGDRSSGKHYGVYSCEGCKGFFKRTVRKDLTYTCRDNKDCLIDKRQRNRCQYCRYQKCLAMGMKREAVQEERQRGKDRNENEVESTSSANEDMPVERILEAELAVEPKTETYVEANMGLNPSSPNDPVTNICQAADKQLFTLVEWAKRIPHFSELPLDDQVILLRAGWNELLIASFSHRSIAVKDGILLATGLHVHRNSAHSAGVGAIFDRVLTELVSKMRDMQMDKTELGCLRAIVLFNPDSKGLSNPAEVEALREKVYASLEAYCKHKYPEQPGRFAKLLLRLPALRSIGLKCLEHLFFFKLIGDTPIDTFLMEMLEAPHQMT
Assay: Co-transfection assay (LXRE luciferase reporter), LXRβ
Assay type: cell-based
Conditions: for EC50: CV-1 cells transfected with pCMX-hLXRβ and LXREx1-Tk-Luciferase, 20 hours incubation; for Emax: LXRβ co-transfection, relative to high control 1-(2,4-difluorobenzyl)-2-oxo-6-(4-phenoxyphenyl)-4-(trifluoromethyl)-1,2-dihydropyridine-3-carbonitrile, read-out: % Efficacy
How it was run: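 CV-1 / pCMX-hLXRβ + LXREx1-Tk-Luc + β-gal; cpd 20 h, 37 °C, ≤0.5% DMSO; Steady-Glo luminescence. 11-pt ½-log curves, duplicate wells, sigmoidal fit → EC50; % efficacy vs high-control agonist, DMSO low control; mean of ≥2 expts.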

| SMILES | EC50 | Emax |
| --- | --- | --- |
| Cc1nc(C(C)(F)F)cn1-c1ccc(-c2cccc(S(C)(=O)=O)c2)cc1-n1nncc1-c1ccc(Cl)cc1Cl [Example 180, 5-(2,4-dichlorophenyl)-1-{4-[4-(1,1-difluoroethyl)-2-methyl-1H-imidazol-1-yl]-3′-(methylsulfonyl)biphenyl-3-yl}-1H-1,2,3-triazole] | 606 nM | 48% |
| Cc1nc(C(F)(F)F)c(Cl)n1-c1ccc(-c2cc(F)c(CO)c(S(C)(=O)=O)c2)cc1-c1cnnn1-c1ccc(Cl)cc1 [Example 240, {4′-[5-chloro-2-methyl-4-(trifluoromethyl)-1H-imidazol-1-yl]-3′-[1-(4-chlorophenyl)-1H-1,2,3-triazol-5-yl]-3-fluoro-5-(methylsulfonyl)biphenyl-4-yl}methanol] | 142 nM | 129% |
| CS(=O)(=O)c1cc(-c2cc(F)c(-n3cnc(C(F)(F)F)c3)c(-n3nncc3-c3ccc(Cl)cc3Cl)c2)cc(F)c1CO [Example 190, {3′-[5-(2,4-dichlorophenyl)-1H-1,2,3-triazol-1-yl]-3,5′-difluoro-5-(methylsulfonyl)-4′-[4-(trifluoromethyl)-1H-imidazol-1-yl]biphenyl-4-yl}methanol] | 208 nM | 119% |
| Cc1nc(-c2cc(-c3cccc(S(C)(=O)=O)c3)ccc2-n2cc(C(F)(F)F)nc2C)c(-c2cccn(C(C)C)c2=O)o1 [Example 379, 1-isopropyl-3-(2-methyl-4-(4-(2-methyl-4-(trifluoromethyl)-1H-imidazol-1-yl)-3′-(methylsulfonyl)biphenyl-3-yl)oxazol-5-yl)pyridin-2(1H)-one] | 825 nM | 21% |
| Cc1nc(C(=O)NC(C)(C)C)cn1-c1ccc(-c2cccc(S(C)(=O)=O)c2)cc1-n1nncc1-c1ccc(OC(F)(F)F)cc1 [Example 152, N-(1,1-dimethylethyl)-2-methyl-1-[3′-(methylsulfonyl)-3-(5-{4-[(trifluoromethyl)oxy]phenyl}-1H-1,2,3-triazol-1-yl)biphenyl-4-yl]-1H-imidazole-4-carboxamide] | 1230 nM | 49% |
| Cc1nc(C(F)(F)F)cn1-c1ccc(-c2cc(F)c(CO)c(S(C)(=O)=O)c2)cc1-c1ocnc1-c1ccc(Cl)cc1 [Example 355, {3′-[4-(4-chlorophenyl)-1,3-oxazol-5-yl]-3-fluoro-5-(methylsulfonyl)-4′-[2-methyl-4-(trifluoromethyl)-1H-imidazol-1-yl]biphenyl-4-yl}methanol] | 105 nM | 98% |
| CCC(F)(F)c1cn(-c2ccc(-c3cc(F)c(CO)c(S(C)(=O)=O)c3)cc2-n2nncc2-c2ccc(OC(F)(F)F)cc2)c(C)n1 [Example 186, {4′-[4-(1,1-difluoropropyl)-2-methyl-1H-imidazol-1-yl]-3-fluoro-5-(methylsulfonyl)-3′-(5-{4-[(trifluoromethyl)oxy]phenyl}-1H-1,2,3-txiazol-1-yl)biphenyl-4-yl}methanol] | 168 nM | 81% |
| Cc1nc(C(F)(F)F)cn1-c1c(Cl)cc(-c2cccc(S(C)(=O)=O)c2)cc1-n1nncc1-c1ccc(OC(F)(F)F)cc1 [Example 195, 1-{5-chloro-3′-(methylsulfonyl)-4-[2-methyl-4-(trifluoromethyl)-1H-imidazol-1-yl]biphenyl-3-yl}-5-{4-[(trifluoromethyl)oxy]phenyl}-1H-1,2,3-triazole] | 574 nM | 83% |
| Cc1nc(C(F)(F)F)cn1-c1ccc(-c2cccc(S(=O)(=O)N(C)C)c2)cc1-c1ocnc1-c1ccc(OC(F)(F)F)cc1 [Example 358, N,N-dimethyl-4′-[2-methyl-4-(trifluoromethyl)-1H-imidazol-1-yl]-3′-(4-{4-[(trifluoromethyl)oxy]phenyl}-1,3-oxazol-5-yl)biphenyl-3-sulfonamide] | 116 nM | 87% |

Second part, the compound after the results:

| EC50 | Emax | SMILES |
| --- | --- | --- |
| 721 nM | 59% | Cc1nc(C(F)(F)F)cn1-c1ccc(-c2cc(F)cc(S(C)(=O)=O)c2)cc1-c1nc(C(F)(F)F)cn1-c1ccc2c(c1)OC(F)(F)O2 [Example 641, 1-(2,2-difluorobenzo[d][1,3]dioxol-5-yl)-2-(3′-fluoro-4-(2-methyl-4-(trifluoromethyl)-1H-imidazol-1-yl)-5′-(methylsulfonyl)biphenyl-3-yl)-4-(trifluoromethyl)-1H-imidazole] |
| 71 nM | 43% | Cc1nc(-c2cc(-c3cccc(S(C)(=O)=O)c3)ccc2-n2cc(C(F)(F)F)nc2C)c(-c2ccc(F)cc2F)o1 [Example 453, 5-(2,4-difluorophenyl)-2-methyl-4-(4-(2-methyl-4-(trifluoromethyl)-1H-imidazol-1-yl)-3′-(methylsulfonyl)biphenyl-3-yl)oxazole] |
| 783 nM | 66% | Cc1nc(C(F)(F)F)cn1-c1ccc(-c2cccc(S(C)(=O)=O)c2)cc1-c1oc(CCO)nc1-c1ccc(Cl)cc1 [Example 618, 2-(4-(4-chlorophenyl)-5-(4-(2-methyl-4-(trifluoromethyl)-1H-imidazol-1-yl)-3′-(methylsulfonyl)-[1,1′-biphenyl]-3-yl)oxazol-2-yl)ethanol] |
| 192 nM | 43% | Cc1nc(-c2cc(-c3cccc(S(C)(=O)=O)c3)ccc2-n2cc(C(F)(F)F)nc2C)c(-c2cc(Cl)cc(Cl)c2)o1 [Example 455, 5-(3,5-dichlorophenyl)-2-methyl-4-(4-(2-methyl-4-(trifluoromethyl)-1H-imidazol-1-yl)-3′-(methylsulfonyl)biphenyl-3-yl)oxazole] |
| 73 nM | 117% | Cc1nc(-c2ccc(OC(F)F)cc2)c(-c2cc(-c3ccc(CO)c(S(C)(=O)=O)c3)ccc2-n2cc(C(F)(F)F)nc2C)o1 [Example 625, (3′-(4-(4-(difluoromethoxy)phenyl)-2-methyloxazol-5-yl)-4′-(2-methyl-4-(trifluoromethyl)-1H-imidazol-1-yl)-3-(methylsulfonyl)-[1,1′-biphenyl]-4-yl)methanol] |
| 88 nM | 124% | Cc1nc(-c2cc(-c3ccc(CO)c(S(C)(=O)=O)c3)ccc2-n2cc(C(F)(F)F)nc2C)c(-c2ccc(OC(F)F)cc2)o1 [Example 497, (3′-(5-(4-(difluoromethoxy)phenyl)-2-methyloxazol-4-yl)-4′-(2-methyl-4-(trifluoromethyl)-1H-imidazol-1-yl)-3-(methylsulfonyl)biphenyl-4-yl)methanol] |
| 36 nM | 91% | Cc1nc(-c2ccc(Cl)cc2Cl)c(-c2cc(-c3cc(F)c(CO)c(S(C)(=O)=O)c3)ccc2-n2cc(C(F)(F)F)nc2C)o1 [Example 609, (3′-(4-(2,4-dichlorophenyl)-2-methyloxazol-5-yl)-3-fluoro-4′-(2-methyl-4-(trifluoromethyl)-1H-imidazol-1-yl)-5-(methylsulfonyl)-[1,1′-biphenyl]-4-yl)methanol] |
| 91 nM | 77% | Cc1nc(-c2cc(-c3cccc(S(C)(=O)=O)c3)ccc2-n2cc(C(F)(F)F)nc2C)c(-c2ccc(C)c(F)c2)o1 [Example 504, 5-(3-fluoro-4-methylphenyl)-2-methyl-4-(4-(2-methyl-4-(trifluoromethyl)-1H-imidazol-1-yl)-3′-(methylsulfonyl)biphenyl-3-yl)oxazole] |
| 18 nM | 96% | CCc1nc(-c2cc(-c3cccc(S(C)(=O)=O)c3)ccc2-n2cc(C(F)(F)F)nc2C)c(-c2ccc(OC(F)(F)F)cc2)o1 [Example 555, 2-ethyl-4-(4-(2-methyl-4-(trifluoromethyl)-1H-imidazol-1-yl)-3′-(methylsulfonyl)-[1,1′-biphenyl]-3-yl)-5-(4-(trifluoromethoxy)phenyl)oxazole] |
| 157 nM | 49% | Cc1nc(-c2cc(-c3cccc(S(C)(=O)=O)c3)ccc2-n2cc(C(F)(F)F)nc2C)c(-c2ccc(SC(F)(F)F)cc2)o1 [Example 571, 2-methyl-4-(4-(2-methyl-4-(trifluoromethyl)-1H-imidazol-1-yl)-3′-(methylsulfonyl)-[1,1′-biphenyl]-3-yl)-5-(4-((trifluoromethyl)thio)phenyl)oxazole] |
| 16 nM | 75% | Cc1nc(C(F)(F)F)cn1-c1ccc(-c2cc(F)c(CO)c(S(C)(=O)=O)c2)cc1-c1nc(C(C)C)oc1-c1ccc(OC(F)(F)F)cc1 [Example 560, (3-fluoro-3′-(2-isopropyl-5-(4-(trifluoromethoxy)phenyl)oxazol-4-yl)-4′-(2-methyl-4-(trifluoromethyl)-1H-imidazol-1-yl)-5-(methylsulfonyl)-[1,1′-biphenyl]-4-yl)methanol] |
